Results published in BigSolDB 2.1.

SMILES: O=c1cc(-c2ccc(O)cc2)oc2cc(O)cc(O)c12
- solubility (mole fraction) (in DMSO, 298.2 K): 0.376
- solubility (mole fraction) (in DMSO, 303.2 K): 0.384
- solubility (mole fraction) (in DMSO, 308.2 K): 0.395
- solubility (mole fraction) (in DMSO, 313.2 K): 0.407
- solubility (mole fraction) (in DMSO, 318.2 K): 0.418
- solubility (mole fraction) (in PEG-400, 298.2 K): 0.397
- solubility (mole fraction) (in PEG-400, 303.2 K): 0.405
- solubility (mole fraction) (in PEG-400, 308.2 K): 0.413
- solubility (mole fraction) (in PEG-400, 313.2 K): 0.42
- solubility (mole fraction) (in PEG-400, 318.2 K): 0.427
- solubility (mole fraction) (in ethanol, 298.2 K): 0.00025
- solubility (mole fraction) (in ethanol, 303.2 K): 0.000314
- solubility (mole fraction) (in ethanol, 308.2 K): 0.000358
- solubility (mole fraction) (in ethanol, 313.2 K): 0.000426
- solubility (mole fraction) (in ethanol, 318.2 K): 0.000486
- solubility (mole fraction) (in ethyl acetate, 298.2 K): 0.000241
- solubility (mole fraction) (in ethyl acetate, 303.2 K): 0.000284
- solubility (mole fraction) (in ethyl acetate, 308.2 K): 0.000326
- solubility (mole fraction) (in ethyl acetate, 313.2 K): 0.000394
- solubility (mole fraction) (in ethyl acetate, 318.2 K): 0.000446
- solubility (mole fraction) (in ethylene glycol, 298.2 K): 0.00522
- solubility (mole fraction) (in ethylene glycol, 303.2 K): 0.00573
- solubility (mole fraction) (in ethylene glycol, 308.2 K): 0.00644
- solubility (mole fraction) (in ethylene glycol, 313.2 K): 0.00732
- solubility (mole fraction) (in ethylene glycol, 318.2 K): 0.00822
- solubility (mole fraction) (in isopropanol, 298.2 K): 0.00038
- solubility (mole fraction) (in isopropanol, 303.2 K): 0.000427
- solubility (mole fraction) (in isopropanol, 308.2 K): 0.000485
- solubility (mole fraction) (in isopropanol, 313.2 K): 0.000551
- solubility (mole fraction) (in isopropanol, 318.2 K): 0.000629
- solubility (mole fraction) (in methanol, 298.2 K): 0.000142
- solubility (mole fraction) (in methanol, 303.2 K): 0.000172
- solubility (mole fraction) (in methanol, 308.2 K): 0.000207
- solubility (mole fraction) (in methanol, 313.2 K): 0.000249
- solubility (mole fraction) (in methanol, 318.2 K): 0.000296
- solubility (mole fraction) (in n-butanol, 298.2 K): 0.000562
- solubility (mole fraction) (in n-butanol, 303.2 K): 0.00063
- solubility (mole fraction) (in n-butanol, 308.2 K): 0.000713
- solubility (mole fraction) (in n-butanol, 313.2 K): 0.000808
- solubility (mole fraction) (in n-butanol, 318.2 K): 0.000918
- solubility (mole fraction) (in propylene glycol, 298.2 K): 0.0101
- solubility (mole fraction) (in propylene glycol, 303.2 K): 0.0112
- solubility (mole fraction) (in propylene glycol, 308.2 K): 0.0124
- solubility (mole fraction) (in propylene glycol, 313.2 K): 0.0137
- solubility (mole fraction) (in propylene glycol, 318.2 K): 0.015
- solubility (mole fraction) (in sec-butanol, 298.2 K): 0.000534
- solubility (mole fraction) (in sec-butanol, 303.2 K): 0.000603
- solubility (mole fraction) (in sec-butanol, 308.2 K): 0.000685
- solubility (mole fraction) (in sec-butanol, 313.2 K): 0.000781
- solubility (mole fraction) (in sec-butanol, 318.2 K): 0.00089
- solubility (mole fraction) (in transcutol, 298.2 K): 0.334
- solubility (mole fraction) (in transcutol, 303.2 K): 0.345
- solubility (mole fraction) (in transcutol, 308.2 K): 0.357
- solubility (mole fraction) (in transcutol, 313.2 K): 0.371
- solubility (mole fraction) (in transcutol, 318.2 K): 0.383
- solubility (mole fraction) (in water, 298.2 K): 1.04e-06
- solubility (mole fraction) (in water, 303.2 K): 1.33e-06
- solubility (mole fraction) (in water, 308.2 K): 1.73e-06
- solubility (mole fraction) (in water, 313.2 K): 2.27e-06
- solubility (mole fraction) (in water, 318.2 K): 3.08e-06
